Laboratory results: ChEMBL document CHEMBL4507292 (2021)

Tests used:
[1] = molecular target: Death-associated protein kinase 3 (Homo sapiens) (UniProt O43293); conditions: Compound concentration 1000.0 nM
[2] = molecular target: Dual specificity mitogen-activated protein kinase kinase 5 (Homo sapiens) (UniProt Q13163); conditions: Compound concentration 1000.0 nM
[3] = molecular target: Ankyrin repeat and protein kinase domain-containing protein 1 (Homo sapiens) (UniProt Q8NFD2); conditions: Compound concentration 1000.0 nM
[4] = test system: Tyrosine-protein kinase ABL1 (Homo sapiens), P00519 [Q252H]; conditions: Compound concentration 1000.0 nM
[5] = molecular target: Mitogen-activated protein kinase kinase kinase 5 (Homo sapiens) (UniProt Q99683); conditions: Compound concentration 1000.0 nM
[6] = molecular target: LIM domain kinase 1 (Homo sapiens) (UniProt P53667); conditions: Compound concentration 1000.0 nM
[7] = test system: Tyrosine-protein kinase ABL1 (Homo sapiens), P00519 [M351T]; conditions: Compound concentration 1000.0 nM
[8] = molecular target: Myosin light chain kinase, smooth muscle (Homo sapiens) (UniProt Q15746); conditions: Compound concentration 1000.0 nM
[9] = molecular target: Mitogen-activated protein kinase 4 (Homo sapiens) (UniProt P31152); conditions: Compound concentration 1000.0 nM
[10] = molecular target: Phosphatidylinositol 4-phosphate 5-kinase type-1 gamma (Homo sapiens) (UniProt O60331); conditions: Compound concentration 1000.0 nM
[11] = molecular target: MAP kinase-interacting serine/threonine-protein kinase 1 (Homo sapiens) (UniProt Q9BUB5); conditions: Compound concentration 1000.0 nM
Sequence of MAP kinase-interacting serine/threonine-protein kinase 1 (Homo sapiens) (Q9BUB5 whole entry, looked up): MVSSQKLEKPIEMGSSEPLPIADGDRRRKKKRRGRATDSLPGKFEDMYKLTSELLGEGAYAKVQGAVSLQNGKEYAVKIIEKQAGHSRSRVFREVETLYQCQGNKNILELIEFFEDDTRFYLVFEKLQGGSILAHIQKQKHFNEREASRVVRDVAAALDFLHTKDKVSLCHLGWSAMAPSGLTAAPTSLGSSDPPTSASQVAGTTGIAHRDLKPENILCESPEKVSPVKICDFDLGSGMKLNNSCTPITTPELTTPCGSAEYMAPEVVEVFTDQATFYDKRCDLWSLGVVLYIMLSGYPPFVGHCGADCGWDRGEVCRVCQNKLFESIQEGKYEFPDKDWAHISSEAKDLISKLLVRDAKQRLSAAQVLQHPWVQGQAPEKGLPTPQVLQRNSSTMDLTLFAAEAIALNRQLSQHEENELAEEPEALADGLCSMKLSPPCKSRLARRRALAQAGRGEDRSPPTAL

[12] = molecular target: Tyrosine-protein kinase Blk (Homo sapiens) (UniProt P51451); conditions: Compound concentration 1000.0 nM
Sequence of Tyrosine-protein kinase Blk (Homo sapiens) (P51451 2-505 limits assumed): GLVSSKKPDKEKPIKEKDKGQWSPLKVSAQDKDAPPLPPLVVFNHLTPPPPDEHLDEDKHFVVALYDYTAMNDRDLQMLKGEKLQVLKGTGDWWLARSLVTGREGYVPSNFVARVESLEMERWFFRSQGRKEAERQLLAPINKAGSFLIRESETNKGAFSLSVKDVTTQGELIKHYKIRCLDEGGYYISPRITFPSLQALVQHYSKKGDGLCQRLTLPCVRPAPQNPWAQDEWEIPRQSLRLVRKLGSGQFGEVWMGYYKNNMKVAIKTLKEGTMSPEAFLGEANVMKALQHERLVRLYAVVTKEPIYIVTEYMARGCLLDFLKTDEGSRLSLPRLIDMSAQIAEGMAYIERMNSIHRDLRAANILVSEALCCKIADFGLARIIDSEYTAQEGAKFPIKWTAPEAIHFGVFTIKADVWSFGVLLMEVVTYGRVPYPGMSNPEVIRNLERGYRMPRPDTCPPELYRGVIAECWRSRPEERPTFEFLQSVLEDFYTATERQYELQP

[13] = molecular target: Hepatocyte growth factor receptor (Homo sapiens) (UniProt P08581); conditions: Compound concentration 1000.0 nM
[14] = molecular target: Dual specificity mitogen-activated protein kinase kinase 6 (Homo sapiens) (UniProt P52564); conditions: Compound concentration 1000.0 nM
[15] = molecular target: Mitogen-activated protein kinase kinase kinase 7 (Homo sapiens) (UniProt O43318); conditions: Compound concentration 1000.0 nM
[16] = molecular target: STE20-like serine/threonine-protein kinase (Homo sapiens) (UniProt Q9H2G2); conditions: Compound concentration 1000.0 nM
[17] = molecular target: Serine/threonine-protein kinase N2 (Homo sapiens) (UniProt Q16513); conditions: Compound concentration 1000.0 nM
Sequence of Serine/threonine-protein kinase N2 (Homo sapiens) (Q16513 whole entry, looked up): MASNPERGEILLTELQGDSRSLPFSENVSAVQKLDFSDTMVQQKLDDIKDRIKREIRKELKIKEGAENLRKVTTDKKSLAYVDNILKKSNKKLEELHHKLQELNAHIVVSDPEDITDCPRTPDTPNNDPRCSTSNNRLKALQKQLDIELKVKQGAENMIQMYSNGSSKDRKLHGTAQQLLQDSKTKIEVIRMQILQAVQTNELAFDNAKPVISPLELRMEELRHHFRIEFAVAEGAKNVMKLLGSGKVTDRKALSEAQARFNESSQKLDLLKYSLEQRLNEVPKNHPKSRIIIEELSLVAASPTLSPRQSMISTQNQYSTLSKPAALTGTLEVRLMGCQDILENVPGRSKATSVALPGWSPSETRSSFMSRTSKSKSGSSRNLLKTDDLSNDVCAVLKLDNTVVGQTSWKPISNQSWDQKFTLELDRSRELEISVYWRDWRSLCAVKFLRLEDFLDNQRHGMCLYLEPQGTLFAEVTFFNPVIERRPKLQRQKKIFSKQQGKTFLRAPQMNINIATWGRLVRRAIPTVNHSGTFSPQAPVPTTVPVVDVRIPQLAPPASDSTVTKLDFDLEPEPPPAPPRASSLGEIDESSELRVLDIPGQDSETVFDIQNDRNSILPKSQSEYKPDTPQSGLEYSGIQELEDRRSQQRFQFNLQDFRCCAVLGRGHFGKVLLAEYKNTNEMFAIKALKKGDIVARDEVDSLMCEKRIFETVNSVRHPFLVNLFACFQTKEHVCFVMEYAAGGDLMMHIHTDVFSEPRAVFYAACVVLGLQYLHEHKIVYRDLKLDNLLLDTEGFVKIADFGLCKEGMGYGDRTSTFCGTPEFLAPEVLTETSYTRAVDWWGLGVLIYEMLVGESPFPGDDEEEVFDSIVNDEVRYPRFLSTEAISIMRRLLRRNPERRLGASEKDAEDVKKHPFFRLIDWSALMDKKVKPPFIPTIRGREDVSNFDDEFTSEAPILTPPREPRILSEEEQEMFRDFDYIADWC

[18] = molecular target: Histamine H2 receptor (Homo sapiens) (UniProt P25021); conditions: Compound concentration 10.0 uM
[19] = molecular target: Serine/threonine-protein kinase PknB (Mycobacterium tuberculosis) (UniProt P9WI81); conditions: Compound concentration 1000.0 nM
[20] = molecular target: Dual specificity protein kinase CLK3 (Homo sapiens) (UniProt P49761); conditions: Compound concentration 1000.0 nM
[21] = molecular target: Maternal embryonic leucine zipper kinase (Homo sapiens) (UniProt Q14680); conditions: Compound concentration 1000.0 nM
[22] = molecular target: Membrane-associated tyrosine- and threonine-specific cdc2-inhibitory kinase (Homo sapiens) (UniProt Q99640); conditions: Compound concentration 1000.0 nM
Sequence of Membrane-associated tyrosine- and threonine-specific cdc2-inhibitory kinase (Homo sapiens) (Q99640 whole entry): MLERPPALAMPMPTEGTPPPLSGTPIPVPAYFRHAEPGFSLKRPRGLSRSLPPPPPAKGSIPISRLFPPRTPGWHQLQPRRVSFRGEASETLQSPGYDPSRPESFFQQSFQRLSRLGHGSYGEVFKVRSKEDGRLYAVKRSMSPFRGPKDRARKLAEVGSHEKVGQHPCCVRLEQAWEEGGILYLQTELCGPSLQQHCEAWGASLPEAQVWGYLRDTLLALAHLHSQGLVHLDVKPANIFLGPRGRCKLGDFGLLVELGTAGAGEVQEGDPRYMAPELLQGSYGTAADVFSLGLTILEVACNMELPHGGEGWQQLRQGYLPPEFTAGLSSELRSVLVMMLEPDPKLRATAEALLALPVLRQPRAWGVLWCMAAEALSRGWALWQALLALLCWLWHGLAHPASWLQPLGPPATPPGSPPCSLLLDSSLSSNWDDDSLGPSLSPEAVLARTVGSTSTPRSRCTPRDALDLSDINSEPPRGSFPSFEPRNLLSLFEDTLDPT

[23] = molecular target: Testis-specific serine/threonine-protein kinase 3 (Homo sapiens) (UniProt Q96PN8); conditions: Compound concentration 1000.0 nM
[24] = molecular target: Serine/threonine-protein kinase TAO2 (Homo sapiens) (UniProt Q9UL54); conditions: Compound concentration 1000.0 nM
[25] = molecular target: Epithelial discoidin domain-containing receptor 1 (Homo sapiens) (UniProt Q08345); conditions: Compound concentration 1000.0 nM
Sequence of Epithelial discoidin domain-containing receptor 1 (Homo sapiens) (Q08345 whole entry, the tested form may be a part): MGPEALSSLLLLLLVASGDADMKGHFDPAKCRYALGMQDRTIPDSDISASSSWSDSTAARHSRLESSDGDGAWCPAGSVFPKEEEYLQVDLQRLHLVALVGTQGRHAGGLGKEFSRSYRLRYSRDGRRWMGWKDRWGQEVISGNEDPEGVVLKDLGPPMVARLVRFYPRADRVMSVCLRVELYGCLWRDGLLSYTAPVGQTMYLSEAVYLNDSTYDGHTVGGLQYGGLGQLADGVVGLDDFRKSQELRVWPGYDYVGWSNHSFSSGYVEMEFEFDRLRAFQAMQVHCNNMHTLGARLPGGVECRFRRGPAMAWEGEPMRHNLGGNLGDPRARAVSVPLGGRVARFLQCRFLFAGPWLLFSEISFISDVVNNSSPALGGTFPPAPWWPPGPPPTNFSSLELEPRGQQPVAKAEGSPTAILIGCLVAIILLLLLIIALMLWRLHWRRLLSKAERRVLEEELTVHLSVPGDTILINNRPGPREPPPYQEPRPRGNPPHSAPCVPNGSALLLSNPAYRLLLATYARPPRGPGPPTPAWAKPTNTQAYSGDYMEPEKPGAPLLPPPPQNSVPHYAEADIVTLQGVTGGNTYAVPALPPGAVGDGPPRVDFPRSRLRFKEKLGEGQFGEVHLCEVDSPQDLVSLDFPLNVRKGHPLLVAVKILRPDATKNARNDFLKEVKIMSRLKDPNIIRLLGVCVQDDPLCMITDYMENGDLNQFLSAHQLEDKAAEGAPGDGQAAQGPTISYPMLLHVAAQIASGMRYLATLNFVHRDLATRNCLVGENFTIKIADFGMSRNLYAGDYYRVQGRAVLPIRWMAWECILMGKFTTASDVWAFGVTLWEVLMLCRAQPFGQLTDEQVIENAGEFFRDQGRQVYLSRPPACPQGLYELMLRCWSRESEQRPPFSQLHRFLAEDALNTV

[26] = molecular target: Protein kinase C delta type (Homo sapiens) (UniProt Q05655); conditions: Compound concentration 1000.0 nM
[27] = molecular target: Serine/threonine-protein kinase TNNI3K (Homo sapiens) (UniProt Q59H18); conditions: Compound concentration 1000.0 nM
Sequence of Serine/threonine-protein kinase TNNI3K (Homo sapiens) (Q59H18 whole entry): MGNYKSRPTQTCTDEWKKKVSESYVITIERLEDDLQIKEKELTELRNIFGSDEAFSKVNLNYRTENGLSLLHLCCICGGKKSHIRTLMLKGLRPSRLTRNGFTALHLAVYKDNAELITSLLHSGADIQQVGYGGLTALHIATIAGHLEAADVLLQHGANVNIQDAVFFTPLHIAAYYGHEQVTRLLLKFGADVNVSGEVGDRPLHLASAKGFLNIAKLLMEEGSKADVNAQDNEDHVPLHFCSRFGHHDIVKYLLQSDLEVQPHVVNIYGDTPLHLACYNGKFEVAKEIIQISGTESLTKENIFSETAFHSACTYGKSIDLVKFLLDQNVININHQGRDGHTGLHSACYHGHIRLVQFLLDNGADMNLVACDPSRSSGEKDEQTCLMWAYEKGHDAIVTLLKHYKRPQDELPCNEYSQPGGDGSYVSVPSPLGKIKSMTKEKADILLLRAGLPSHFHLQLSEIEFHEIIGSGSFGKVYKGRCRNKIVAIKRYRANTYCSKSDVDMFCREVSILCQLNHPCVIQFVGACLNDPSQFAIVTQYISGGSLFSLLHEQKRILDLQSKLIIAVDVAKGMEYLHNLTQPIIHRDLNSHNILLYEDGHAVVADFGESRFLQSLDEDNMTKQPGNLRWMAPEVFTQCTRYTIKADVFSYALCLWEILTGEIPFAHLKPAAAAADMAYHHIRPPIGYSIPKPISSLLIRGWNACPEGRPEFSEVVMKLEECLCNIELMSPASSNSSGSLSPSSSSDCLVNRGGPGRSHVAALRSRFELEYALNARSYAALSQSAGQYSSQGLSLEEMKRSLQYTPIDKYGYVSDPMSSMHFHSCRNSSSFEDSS

[28] = molecular target: Rhodopsin kinase GRK1 (Homo sapiens) (UniProt Q15835); conditions: Compound concentration 1000.0 nM
[29] = molecular target: Receptor-interacting serine/threonine-protein kinase 4 (Homo sapiens) (UniProt P57078); conditions: Compound concentration 1000.0 nM
[30] = test system: Proto-oncogene tyrosine-protein kinase receptor Ret (Homo sapiens), P07949 [M918T]; conditions: Compound concentration 1000.0 nM
[31] = molecular target: T1, 5-hydroxytryptamine receptor 2C (Homo sapiens) (UniProt P28335); conditions: Compound concentration 10.0 uM
T1 sequence (whole entry): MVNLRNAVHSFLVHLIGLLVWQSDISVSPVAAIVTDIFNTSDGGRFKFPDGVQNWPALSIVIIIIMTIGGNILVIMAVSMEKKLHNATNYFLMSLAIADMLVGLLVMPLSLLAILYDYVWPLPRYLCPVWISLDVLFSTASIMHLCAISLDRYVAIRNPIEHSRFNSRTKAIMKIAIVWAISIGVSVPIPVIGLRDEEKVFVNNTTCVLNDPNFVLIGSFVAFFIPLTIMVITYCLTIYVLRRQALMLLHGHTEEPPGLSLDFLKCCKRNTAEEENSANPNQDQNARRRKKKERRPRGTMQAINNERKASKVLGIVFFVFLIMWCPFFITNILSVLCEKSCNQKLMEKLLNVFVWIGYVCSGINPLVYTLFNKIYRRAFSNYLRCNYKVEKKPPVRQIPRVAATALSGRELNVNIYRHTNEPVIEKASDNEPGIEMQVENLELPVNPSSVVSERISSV

[32] = test system: Receptor-type tyrosine-protein kinase FLT3 (Homo sapiens), P36888 [N841I]; conditions: Compound concentration 1000.0 nM
[33] = molecular target: Cyclin-dependent kinase 16 (Homo sapiens) (UniProt Q00536); conditions: Compound concentration 1000.0 nM
[34] = test system: Tyrosine-protein kinase ABL1 (Homo sapiens), P00519 [F317I]; conditions: Compound concentration 1000.0 nM
[35] = molecular target: Cyclin-dependent kinase 17 (Homo sapiens) (UniProt Q00537); conditions: Compound concentration 1000.0 nM
[36] = molecular target: Serine/threonine-protein kinase Nek1 (Homo sapiens) (UniProt Q96PY6); conditions: Compound concentration 1000.0 nM
[37] = test system: Receptor-type tyrosine-protein kinase FLT3 (Homo sapiens), P36888 [UNDEFINED MUTATION]; conditions: Compound concentration 1000.0 nM
[38] = molecular target: Protein kinase C eta type (Homo sapiens) (UniProt P24723); conditions: Compound concentration 1000.0 nM
Sequence of Protein kinase C eta type (Homo sapiens) (P24723 whole entry): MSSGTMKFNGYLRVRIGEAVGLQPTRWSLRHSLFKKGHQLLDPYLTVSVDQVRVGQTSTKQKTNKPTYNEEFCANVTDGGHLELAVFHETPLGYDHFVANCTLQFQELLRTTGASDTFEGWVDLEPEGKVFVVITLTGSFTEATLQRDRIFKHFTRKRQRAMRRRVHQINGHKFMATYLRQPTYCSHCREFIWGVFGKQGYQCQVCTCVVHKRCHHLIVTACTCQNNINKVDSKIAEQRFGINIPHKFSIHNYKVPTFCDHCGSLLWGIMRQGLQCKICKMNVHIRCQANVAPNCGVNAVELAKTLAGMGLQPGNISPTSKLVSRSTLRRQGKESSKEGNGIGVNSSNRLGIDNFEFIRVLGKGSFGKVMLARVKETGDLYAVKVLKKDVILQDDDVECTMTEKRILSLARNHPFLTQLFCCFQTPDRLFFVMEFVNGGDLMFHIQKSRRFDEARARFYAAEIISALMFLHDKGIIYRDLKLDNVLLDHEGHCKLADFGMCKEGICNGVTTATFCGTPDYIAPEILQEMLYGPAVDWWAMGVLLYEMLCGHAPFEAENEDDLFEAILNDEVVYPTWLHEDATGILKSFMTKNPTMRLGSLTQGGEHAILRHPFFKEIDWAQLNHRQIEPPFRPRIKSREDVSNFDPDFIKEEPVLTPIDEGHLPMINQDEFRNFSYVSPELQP

[39] = test system: ALK tyrosine kinase receptor (Homo sapiens), Q9UM73 [L1196M]; conditions: Compound concentration 1000.0 nM

O=C(O)c1cc(-c2ccc(C3CCNCC3)cc2)c2ccc(-c3ccc(C(F)(F)F)cc3)cc2c1 [PPTN]
inactive: residual activity [1] 100% | residual activity [2] 96% | residual activity [3] 100% | residual activity [4] 100% | residual activity [5] 100% | residual activity [6] 100% | residual activity [7] 100% | residual activity [8] 85% | residual activity [9] 100% | residual activity [10] 100% | residual activity [11] 100% | residual activity [12] 86% | residual activity [13] 100% | residual activity [14] 100% | residual activity [15] 100% | residual activity [16] 100% | residual activity [17] 100% | inhibition [18] 28% | residual activity [19] 100% | residual activity [20] 100% | residual activity [21] 98% | residual activity [22] 100% | residual activity [23] 100% | residual activity [24] 100% | residual activity [25] 100% | residual activity [26] 100% | residual activity [27] 100% | residual activity [28] 100% | residual activity [29] 100% | residual activity [30] 92% | inhibition [31] 11.2% | residual activity [32] 100% | residual activity [33] 100% | residual activity [34] 100% | residual activity [35] 100% | residual activity [36] 100% | residual activity [37] 100% | residual activity [38] 100% | residual activity [39] 100%

Cc1c(C(=O)O)cc(-c2ccc(C3CCNCC3)cc2)c2ccc(-c3ccc(C(F)(F)F)cc3)cc12 [PPTN-NC]
inactive: residual activity [1] 100% | residual activity [2] 100% | residual activity [3] 100% | residual activity [4] 85% | residual activity [5] 100% | residual activity [6] 100% | residual activity [7] 100% | residual activity [8] 82% | residual activity [9] 100% | residual activity [10] 98% | residual activity [11] 100% | residual activity [12] 100% | residual activity [13] 100% | residual activity [14] 100% | residual activity [15] 100% | residual activity [16] 100% | residual activity [17] 100% | inhibition [18] 9% | residual activity [19] 100% | residual activity [20] 100% | residual activity [21] 100% | residual activity [22] 100% | residual activity [23] 93% | residual activity [24] 100% | residual activity [25] 100% | residual activity [26] 100% | residual activity [27] 100% | residual activity [28] 100% | residual activity [29] 97% | residual activity [30] 100% | inhibition [31] -4.53% | residual activity [32] 100% | residual activity [33] 100% | residual activity [34] 100% | residual activity [35] 100% | residual activity [36] 100% | residual activity [37] 100% | residual activity [38] 100% | residual activity [39] 100%
